Source: PubChem BioAssay (NCI)
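Interpolation was linear, between the two tested concentrations surrounding the appropriate level; five concentrations were tested over 48 hours in 96-well plates. TGI: concentration producing complete growth inhibition.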

Experiments:
Assay in all cases: inhibition of tumour cell growth, NCI panel, 48 h
NCI-H23 lung = system: NCI-H23 lung
ACHN renal = system: ACHN renal
IGROV1 ovarian = system: IGROV1 ovarian
COLO 205 colon = system: COLO 205 colon
SK-MEL-5 melanoma = system: SK-MEL-5 melanoma
NCI-H460 lung = system: NCI-H460 lung
A498 renal = system: A498 renal
MCF7 breast = system: MCF7 breast
T-47D breast = system: T-47D breast
RXF 393 renal = system: RXF 393 renal

| SMILES | TGI (NCI-H23 lung) | TGI (ACHN renal) | TGI (IGROV1 ovarian) | TGI (COLO 205 colon) | TGI (SK-MEL-5 melanoma) | TGI (NCI-H460 lung) | TGI (A498 renal) | TGI (MCF7 breast) | TGI (T-47D breast) | TGI (RXF 393 renal) |
| --- | --- | --- | --- | --- | --- | --- | --- | --- | --- | --- |
| CCCc1cc(=O)oc2c3c(c4c(c12)OC(C)(C)C=C4)O[C@@H](C)[C@H](C)C3=O | 38.4 µM | 24.9 µM | 28.4 µM | 49.5 µM | 32.3 µM | 44.4 µM | 29.9 µM | 46.3 µM | – | – |
| O=[N+]([O-])c1cccc2nc3ccccc3c(NCCc3cccc[n+]3[O-])c12 | 0.0661 µM | 0.039 µM | – | < 0.0168 µM | < 0.01 µM | 0.174 µM | 0.225 µM | 0.276 µM | 0.852 µM | 0.11 µM |
| O=C1CN2Cc3cc(N4CCOCC4)ccc3N=C2N1 | > 100 µM | – | > 100 µM | > 100 µM | > 100 µM | > 100 µM | > 100 µM | > 100 µM | > 100 µM | > 100 µM |
| CCCCc1c2c(nc3c1CCCC3O)/C(=C/c1ccccc1)CCC2 (stereo unspecified) | > 100 µM | > 100 µM | > 100 µM | 33.4 µM | 39.6 µM | > 100 µM | > 100 µM | – | – | 71.7 µM |
| CC1(C)CC(=O)C2=C(C1)c1c(ccc3ccccc13)NC2c1cn(Cc2ccc(Cl)cc2)c2ccccc12 (stereo unspecified) | > 100 µM | > 100 µM | > 100 µM | > 100 µM | > 100 µM | > 100 µM | – | > 100 µM | > 100 µM | – |
| COC(OC)c1cccc2c1C(=O)CCC1(O)c3ccccc3C1C2 (stereo unspecified) | > 100 µM | – | > 100 µM | > 100 µM | > 100 µM | – | – | – | – | – |
| COc1ccc(C2C3C(=O)C=CC(=O)C3[C@@H]2C)cc1OC (stereo partly specified) | > 100 µM | > 100 µM | > 100 µM | > 100 µM | > 100 µM | > 100 µM | > 100 µM | – | – | > 100 µM |
| O=C1CCC[C@]2(CCC[C@@H](O)C2)N1 | – | > 100 µM | > 100 µM | > 100 µM | > 100 µM | > 100 µM | – | > 100 µM | > 100 µM | > 100 µM |
| N#Cc1c(-c2ccco2)cc(-c2ccc(NCc3nc4ccccc4[nH]3)cc2)nc1N | 48.8 µM | > 100 µM | > 100 µM | 47.9 µM | 29.9 µM | 43.3 µM | > 100 µM | – | – | 68.5 µM |
| CCCC/C=C/C1Cc2ccccc2CN1S(=O)(=O)c1ccc(C)cc1 (stereo unspecified) | 16.4 µM | 22.5 µM | 26.9 µM | 22 µM | 14.9 µM | 31.3 µM | – | – | – | 23.9 µM |
| NC(=O)N1N=C2c3ccccc3CC[C@@H]2C1c1ccccc1 (stereo partly specified) | > 100 µM | > 100 µM | > 100 µM | > 100 µM | > 100 µM | > 100 µM | > 100 µM | – | – | > 100 µM |
| O=c1cc(N2CCOCC2)[nH]c(=O)n1-c1cccc(C(F)(F)F)c1 | > 100 µM | > 100 µM | > 100 µM | > 100 µM | > 100 µM | > 100 µM | > 100 µM | > 100 µM | > 100 µM | – |
| COC(=O)C1=C(C(=O)OC)C2(OC(C)=O)c3ccccc3-c3ccccc3C12 (stereo unspecified) | 25.6 µM | 6.48 µM | 10.1 µM | 3.68 µM | 27.3 µM | 32.8 µM | 32 µM | – | – | 9.17 µM |
| Clc1ccc(Oc2ccc(N=Cc3ccc(Cl)cc3Cl)cc2Cl)cc1 | > 100 µM | > 100 µM | > 100 µM | > 100 µM | > 100 µM | > 100 µM | – | > 100 µM | > 100 µM | – |
| Cc1ccc(-c2c(C#N)c(S)n(NS(=O)(=O)c3ccc(C)cc3)c(=O)c2C#N)cc1 | 52.3 µM | 49.8 µM | 51.1 µM | > 100 µM | 49.2 µM | – | > 100 µM | > 100 µM | – | 97.5 µM |
| CSc1nc(-c2cc3c(c(SC)n2)CCCCC3)cc2c1CCCCC2 | > 100 µM | > 100 µM | 85.9 µM | > 100 µM | > 100 µM | > 100 µM | > 100 µM | – | – | > 100 µM |
| COc1ccc(N2C(=O)C3ON(C(C(N)=O)c4ccccc4)C(c4ccc(-c5ccccc5)cc4)C3C2=O)cc1 (stereo unspecified) | > 50 µM | > 50 µM | > 50 µM | > 50 µM | – | > 50 µM | > 50 µM | > 50 µM | > 50 µM | > 50 µM |
| COC(=O)C1(Cc2ccc3c(c2)CCC3)Cc2ccc3c(c2C1O)CCC3 (stereo unspecified) | – | 26.7 µM | – | 25.6 µM | 22.1 µM | 54.4 µM | 25.1 µM | 26.9 µM | 33 µM | 31 µM |
| CSC(C1c2ccccc2N(C)C2=NC(=O)N(C)C(=O)C21Cl)S(=O)(=O)c1ccc(C)cc1 (stereo unspecified) | 83.5 µM | > 100 µM | > 100 µM | > 100 µM | > 100 µM | > 100 µM | > 100 µM | – | – | – |
| O=C(/C=C/c1ccc(Cl)cc1)Oc1ccc(/C=C2\CCCCC2=O)cc1 | > 100 µM | > 100 µM | > 100 µM | > 100 µM | > 100 µM | > 100 µM | > 100 µM | > 100 µM | > 100 µM | – |
| CC1(C)C(=O)C(C)(C)C12SSC1(S2)C(C)(C)C(=O)C1(C)C | > 100 µM | > 100 µM | > 100 µM | > 100 µM | > 100 µM | > 100 µM | > 100 µM | > 100 µM | > 100 µM | – |
| CC1OC(OC2C(O[C@H]3CC[C@@]4(C)[C@@H](CC[C@@H]5[C@@H]4CC[C@]4(C)[C@@H]6[C@H](C[C@@H]54)O[C@]4(CC[C@@H](C)CO4)[C@H]6C)C3)OC(CO)C(OC3OC(CO)C(O)C(OC4OCC(O)C(O)C4O)C3OC3OCC(O)C(O)C3O)C2O)C(O)C(O)C1O (stereo partly specified) | 2.93 µM | 2.2 µM | 2.73 µM | 1.35 µM | – | 2.23 µM | 3.78 µM | 0.914 µM | – | 1.85 µM |
| Nc1nc(SCCNC(=O)CCc2ccc(O)cc2)nc2c1ncn2C1OC(CO)C(O)C1O (stereo unspecified) | > 203 µM | > 203 µM | > 203 µM | > 203 µM | > 203 µM | > 203 µM | > 203 µM | – | – | – |
| Clc1ccc(SCCSCCCCCCCCCCSCCSc2ccc(Cl)cc2)cc1 | > 100 µM | > 100 µM | > 100 µM | > 100 µM | > 100 µM | > 100 µM | > 100 µM | – | – | > 100 µM |
